Where two headings read alike, the source gives them in different places.
Legend:
PAI-1 [1] = assay: Intermediate endpoint study in patients with TIA/minor stroke: plasma PAI-1 (ELISA); type: in vivo, human; settings: 20 patients with TIA/minor stroke, 400 mg enteric-coated tablet once daily at 11 pm for 2 weeks
Experimental: An intermediate endpoint proof-of-concept study is performed in patients with TIA/minor stroke investigated before and after treatment with Valproic acid. Valproic acid is administrated as an enteric-coated tablet with delayed absorption.
(§1) The study comprises 20 patients with TIA/minor stroke. Patients are investigated before and after oral treatment with 400 mg valproic acid once time daily at 11 pm for 2 weeks. Plasma PAI-1 levels and plasma concentrations of valproic acid is followed daily during the study period at the following time-points: 3 am, 6 am, 10 am, 16 pm, 22 pm PAI-1 levels are measured by commercially available ELISA-kits (Coaliza PAI-1, Chromogenix AB) and the plasma concentration of valproic acid an metabolites thereof is analyzed according to clinical routine at the Sahlgrenska University laboratory, Gothenburg, Sweden.

PAI-1 [2] = settings: in vivo model in pig (Svennerholm et al., PLoS One 2014); cited from earlier work
PAI-1 [3] = assay: In vitro cultured endothelial cells: PAI-1 mRNA / production after VPA treatment; type: cell-based
PAI-1 [4] = assay: Proof-of-concept cross-over study in patients with a history of myocardial infarction: plasma PAI-1 before and after valproic acid; type: in vivo, human; settings: midmorning, p=0.01; for reduction in circulating plasma PAI-1 levels: 16 male patients with history of myocardial infarction, 500 mg (Ergenyl Retard) twice daily during 28 days on top of ordinary prescription
Experimental: (§2) The effects of VPA on PAI-1 were analysed in two different proof-of-concept studies in healthy subjects as well as in patients with manifest atherosclerotic disease. […] PAI-1 plasma levels were measured in the morning at the first day of the study as well as at the end of the treatment period with VPA (see example 2 for details on the PAI-1 analysis).
In the second study, 16 non-smoking white male patients, aged 50-80 years with a history of a myocardial infarction were included. On top of their ordinary prescription (beta-blocker, ACE-inhibitor, statin, aspirin) they were treated with valproic acid 500 mg (Ergenyl Retard, Sanofi), twice daily during 28 days.
as §1

[5] = Clinical outcome study in high-risk patients: recurrent atherothrombotic events; type: in vivo, human; settings: 400 mg once daily at 11 pm, long-term, expected
Experimental: A clinical outcome study is performed in high-risk patients who have experienced a recent major atherothrombotic cardiovascular event (myocardial infarction or TIA/ischemic stroke) to investigate the preventive effect of valproic acid treatment on the risk for recurrent events. The annual risk for a recurrent atherothrombotic event in the investigated population is estimated to approximately 7%. Patients are randomized in a parallel study design to receive double-blind oral treatment with 400 mg valproic acid (as in Example 2) or placebo once time daily at 11 pm, in addition to optimal conventional treatment. The event rate is monitored by Kaplan-Meyer statistics. The primary efficacy endpoint is the composite measure of either mortality, or non-fatal myocardial infarction or ischemic stroke. The study is event-driven to a total of 180 events.

PAI-1 [6] = assay: In vivo model in mouse: plasma PAI-1; settings: in vivo model in mouse (unpublished data)
PAI-1 [7] = assay: Proof-of-concept cross-over study in healthy subjects: plasma PAI-1 before and after valproic acid; type: in vivo, human; settings: 500 mg (Ergenyl Retard) twice daily during 14 days, p<0.05
Experimental: as §2
In the first study, 10 healthy non-smoking white male subjects (with mean BMI of approximately 26), aged 50-70 years were included and treated with valproic acid 500 mg (Ergenyl Retard, Sanofi) twice daily during 14 days.
as §1

SMILES: CCCC(CCC)C(=O)O [valproic acid, 2-propylpentanoic acid]
- plasma PAI-1 levels lowered after the treatment (PAI-1 [1]): approximately 30%
- effects on plasma PAI-1 (PAI-1 [2]): did not detect any effects
- PAI-1 mRNA levels after VPA treatment (PAI-1 [3]): did not show a decrease
- increase in PAI-1 production (PAI-1 [3]; slight but significant): 30%
- reduction in circulating plasma PAI-1 levels (PAI-1 [4]): 45%
- reduction in circulating plasma PAI-1 levels (PAI-1 [4]; listed as VPA): about 45%
- circulating plasma PAI-1 level after treatment (PAI-1 [4]; patients with history of myocardial infarction, 500 mg (Ergenyl Retard) twice daily during 28 days, 19.6 ng/ml before treatment): 11 ng/mL
- reduction of risk for recurrent atherothrombotic event ([5]; in addition to conventional therapy): approximately 30%
- annual absolute event rate ([5]; estimated approximately 7% without treatment): approximately 5%
- effects on plasma PAI-1 (PAI-1 [6]): did not detect any effects
- reduction in circulating plasma PAI-1 levels (PAI-1 [7]; 10 healthy male subjects, mid-morning vs before treatment): more than 50%
- circulating plasma PAI-1 level after treatment (PAI-1 [7]; healthy male subjects, mid-morning, 22.2 ng/ml before treatment): 10.8 ng/mL
